Molecular target: binding between NRF2 and KEAP1 (Homo sapiens (Human), UniProt Q14145)
Assay: Binding assay: inhibition of binding between NRF2 and KEAP1 by BRET (NanoLuc-NRF2 and KEAP1-HaloTag cell lysates)
Settings: Test Example 1-1; NRF2-KEAP1 BRET; N=2
Procedure: The inhibitory activity of each compound on the binding between NRF2 and KEAP1 was measured by bioluminescence resonance energy transfer (BRET) assay. A plasmid having human NRF2 (Original Clone ID: ha01449s1) sequence fused with NanoLuc (19 kDa, Promega) at the N-terminal was transduced into HCE-T cells (immortalized human corneal epithelial cells) using FuGENE HD (Promega). 48 hours after transduction, the cell lysate was collected and used as an NRF2-expressing cell lysate. A plasmid having human KEAP1 (Original Clone ID: cs00328) sequence fused with HaloTag (33 kDa, Promega) at the C-terminal was transduced into HCE-T cells using FuGENE HD (Promega). After 24 hours, HaloTag Nano BRET 618 Ligand (Promega) was added to the medium. The cell lysate cultured for 24 hours after the addition was used as a KEAP1-expressing cell lysate.
The NRF2-expressing cell lysate and the KEAP1-expressing cell lysate were adjusted so that the luminescence and fluorescence intensities per well were constant. Tables 1 and 2 show the formulation of each reaction solution.
Each test substance at a concentration 100 times higher than the test concentration was dissolved in dimethylsulfoxide for adjustment. 49 μL of KEAP1 solution was added to a 96-well polystyrene microplate (FALCON) to which 1 μL of each test substance solution was added, followed by incubation for 15 minutes. Then, 50 μL of NRF2 solution was added to the above solution, followed by incubation for 1 hour. To measure the binding between NRF2 and KEAP1, NanoBRET Nano-Glo Substrate (Promega) diluted with Opti-Mem (Thermo Fisher Scientific) was added, followed by shaking for 30 seconds. Then, luminescence and fluorescence were measured using the GloMax Discover System (Promega). A 495-nm short pass filter and a 600-nm long pass filter were respectively used to measure donor and acceptor emission values. A value obtained by dividing the acceptor emission value by the donor emission value was regarded as BRET value. A BRET value when the compound was not added, and a BRET value when the KEAP1 solution was not added were respectively used as binding rates of 100% and 0%, and the binding rate when the compound was added was calculated. Further, using this binding rate, the 50% binding inhibitory activity concentration (IC50) was calculated from the following formula. The test was performed at N=2.
IC50(M)=10^(LOG(A/B)×(50−C)/(D−C)+LOG(B)) • A: higher concentration out of 2 close concentrations across the inhibition rate of 50% • B: lower concentration out of 2 close concentrations across the inhibition rate of 50% • C: inhibition rate at B • D: inhibition rate at A
Compounds A1/A2, compounds B1/B2, compounds C1/C2, and compounds D1/D2 were used as test substances. Binding assay and reporter assay were performed as in Test Example 1-1 and Test Example 1-2.

Sequence of binding between NRF2 and KEAP1 (Q14145 whole entry): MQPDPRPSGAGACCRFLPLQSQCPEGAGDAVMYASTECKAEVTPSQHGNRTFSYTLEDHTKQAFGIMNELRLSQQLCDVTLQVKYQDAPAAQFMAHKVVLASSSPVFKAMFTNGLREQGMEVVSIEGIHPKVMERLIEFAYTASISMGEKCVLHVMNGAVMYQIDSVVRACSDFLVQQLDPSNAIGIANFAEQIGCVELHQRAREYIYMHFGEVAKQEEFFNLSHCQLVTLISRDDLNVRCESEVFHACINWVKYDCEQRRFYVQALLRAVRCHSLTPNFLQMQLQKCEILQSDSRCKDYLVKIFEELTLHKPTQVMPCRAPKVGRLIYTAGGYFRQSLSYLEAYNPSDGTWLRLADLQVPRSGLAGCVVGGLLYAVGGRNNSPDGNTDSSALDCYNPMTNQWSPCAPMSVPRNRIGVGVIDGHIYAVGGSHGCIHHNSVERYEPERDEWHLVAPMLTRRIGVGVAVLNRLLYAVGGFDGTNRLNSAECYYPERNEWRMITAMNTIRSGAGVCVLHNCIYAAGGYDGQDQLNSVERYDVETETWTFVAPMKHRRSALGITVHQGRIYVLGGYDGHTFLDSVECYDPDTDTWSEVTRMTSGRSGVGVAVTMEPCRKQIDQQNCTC

| Compound | IC50 [nM] |
| --- | --- |
| 3-(3-{[(R)-4-ethyl-1,1-dioxide-3,4-dihydro-2H-benzo[b][1,4,5]oxathiazepin-2-yl]methyl}-4-methylphenyl)-3-(5-sulfamoylthiophen-2-yl)propanoic acid [Compound 18] | 35 |
| 3-[5-(cyclopropanecarbonyl)thiophen-2-yl]-3-(3-{[(R)-4-ethyl-1,1-dioxide-3,4-dihydro-2H-benzo[b][1,4,5]oxathiazepin-2-yl]methyl}-4-methylphenyl)propanoic acid [Compound 20] | 24 |
| CC[C@@H]1CN(Cc2cc(C(c3ccc(C(C)=O)s3)C(C)C(=O)O)ccc2C)S(=O)(=O)c2ccccc2O1 (stereo partly drawn) [Compound 1, 3-(5-acetylthiophen-2-yl)-3-(3-{[(R)-4-ethyl-1,1-dioxide-3,4-dihydro-2H-benzo[b][1,4,5]oxathiazepin-2-yl]methyl}-4-methylphenyl)-2-methylpropanoic acid] | 0.24 |
| CC[C@@H]1CN(Cc2cc(C(c3cc(C(C)=O)cs3)C(C)C(=O)O)ccc2C)S(=O)(=O)c2ccccc2O1 (stereo partly drawn) [Compound 3, 3-(4-acetylthiophen-2-yl)-3-(3-{[(R)-4-ethyl-1,1-dioxide-3,4-dihydro-2H-benzo[b][1,4,5]oxathiazepin-2-yl]methyl}-4-methylphenyl)-2-methylpropanoic acid] | 0.17 |
| CC[C@@H]1CN(Cc2cc(C(c3cc(OC)c(C(C)=O)s3)C(C)(C)C(=O)O)ccc2C)S(=O)(=O)c2ccccc2O1 (stereo partly drawn) [Compound 4, 3-(5-acetyl-4-methoxythiophen-2-yl)-3-(3-{[(R)-4-ethyl-1,1-dioxide-3,4-dihydro-2H-benzo[b][1,4,5]oxathiazepin-2-yl]methyl}-4-methylphenyl)-2,2-dimethylpropanoic acid] | 0.41 |

Continued, values first:

| IC50 [nM] | Compound |
| --- | --- |
| 0.23 | CC[C@@H]1CN(Cc2cc(C(CC(=O)O)c3ccc(C(C)=O)s3)ccc2C)S(=O)(=O)c2ccccc2O1 (stereo partly drawn) [Compound 5, 3-(5-acetylthiophen-2-yl)-3-(3-{[(R)-4-ethyl-1,1-dioxide-3,4-dihydro-2H-benzo[b][1,4,5]oxathiazepin-2-yl]methyl}-4-methylphenyl)propanoic acid] |
| 0.27 | CC[C@@H]1CN(Cc2cc(C(c3ccc(C(C)=O)s3)C(C)(C)C(=O)O)ccc2C)S(=O)(=O)c2ccccc2O1 (stereo partly drawn) [Compound 6, 3-(5-acetylthiophen-2-yl)-3-(3-{[(R)-4-ethyl-1,1-dioxide-3,4-dihydro-2H-benzo[b][1,4,5]oxathiazepin-2-yl]methyl}-4-methylphenyl)-2,2-dimethylpropanoic acid] |
| 0.36 | CC[C@@H]1CN(Cc2cc(C(CC(=O)O)c3cc(C)c(C(C)=O)s3)ccc2C)S(=O)(=O)c2ccccc2O1 (stereo partly drawn) [Compound 7, 3-(5-acetyl-4-methylthiophen-2-yl)-3-(3-{[(R)-4-ethyl-1,1-dioxide-3,4-dihydro-2H-benzo[b][1,4,5]oxathiazepin-2-yl]methyl}-4-methylphenyl)propanoic acid] |
| 0.36 | CC[C@@H]1CN(Cc2cc(C(CC(=O)O)c3cc(F)c(C(C)=O)s3)ccc2C)S(=O)(=O)c2ccccc2O1 (stereo partly drawn) [Compound 8, 3-(5-acetyl-4-fluorothiophen-2-yl)-3-(3-{[(R)-4-ethyl-1,1-dioxide-3,4-dihydro-2H-benzo[b][1,4,5]oxathiazepin-2-yl]methyl}-4-methylphenyl)propanoic acid] |
| 0.3 | CC[C@@H]1CN(Cc2cc(C(c3ccc(C(C)=O)s3)C(C)(C)C(=O)O)ccc2C)S(=O)(=O)c2c(F)cccc2O1 (stereo partly drawn) [Compound 9, 3-(5-acetylthiophen-2-yl)-3-(3-{[(R)-4-ethyl-9-fluoro-1,1-dioxide-3,4-dihydro-2H-benzo[b][1,4,5]oxathiazepin-2-yl]methyl}-4-methylphenyl)-2,2-dimethylpropanoic acid] |
| 0.3 | CC[C@@H]1CN(Cc2cc(C(CC(=O)O)c3cc(C(C)=O)cs3)ccc2C)S(=O)(=O)c2ccccc2O1 (stereo partly drawn) [Compound 10, 3-(4-acetylthiophen-2-yl)-3-(3-{[(R)-4-ethyl-1,1-dioxide-3,4-dihydro-2H-benzo[b][1,4,5]oxathiazepin-2-yl]methyl}-4-methylphenyl)propanoic acid] |
